Test results reported in the supplement of paper PMC10307832.

What was measured:
Assay in all cases: relative viability (nuclei count vs DMSO), 5 days (fraction); higher = more cells survive
Entinostat + Vorinostat = compound: Nc1ccccc1NC(=O)c1ccc(CNC(=O)OCc2cccnc2)cc1 [Entinostat] + O=C(CCCCCCC(=O)Nc1ccccc1)NO [Vorinostat] (partner 1 µM)
How it was run: (§1)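 Cells from lung cancer lines were seeded into 1536-well plates and, one day later, dosed by pin tool. Treatments were either a single drug or a fixed dose of an anchor drug with five library-drug doses (not always all listed) in √10 steps. After 5 days, nuclei were stained in a one-step fixation (final 0.05% Triton X-100, 1% formaldehyde, 1 ug/ml Hoechst) and counted on 4× images, and relative viability is the treated-to-vehicle nuclei ratio, as the median of duplicate plates.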

Entinostat + Crizotinib = compound: Nc1ccccc1NC(=O)c1ccc(CNC(=O)OCc2cccnc2)cc1 [Entinostat] + C[C@@H](Oc1cc(-c2cnn(C3CCNCC3)c2)cnc1N)c1c(Cl)ccc(F)c1Cl [Crizotinib] (partner 1 µM)
How it was run: as §1

SGI-1776 + Tozasertib = compound: CN1CCC(CNc2ccc3ncc(-c4cccc(OC(F)(F)F)c4)n3n2)CC1 [SGI-1776] + Cc1cc(Nc2cc(N3CCN(C)CC3)nc(Sc3ccc(NC(=O)C4CC4)cc3)n2)n[nH]1 [Tozasertib] (partner 0.1 µM)
How it was run: as §1

[1] = compound: C1COCCN1C2=NC(=NC3=C2OC4=C3C=CC=N4)C5=CC(=CC=C5)NC(=O)C6=CN=C(C=C6)N + COc1cccc2cc(-c3nc([C@H]4CC[C@H](C(=O)O)CC4)n4ncnc(N)c34)[nH]c12 [OSI-027] (partner 0.5 µM)
How it was run: as §1

Cell Line	relative viability (Entinostat + Vorinostat; first compound 0.02 µM)	relative viability (Entinostat + Vorinostat; first compound 0.06325 µM)	relative viability (Entinostat + Vorinostat; first compound 0.2 µM)	relative viability (Entinostat + Vorinostat; first compound 0.6325 µM)	relative viability (Entinostat + Vorinostat; first compound 2 µM)	relative viability (Entinostat + Crizotinib; first compound 0.02 µM)	relative viability (Entinostat + Crizotinib; first compound 0.06325 µM)	relative viability (Entinostat + Crizotinib; first compound 0.2 µM)	relative viability (Entinostat + Crizotinib; first compound 0.6325 µM)	relative viability (Entinostat + Crizotinib; first compound 2 µM)	relative viability (SGI-1776 + Tozasertib; first compound 0.08 µM)	relative viability (SGI-1776 + Tozasertib; first compound 0.8 µM)	relative viability (SGI-1776 + Tozasertib; first compound 2.53 µM)	relative viability (SGI-1776 + Tozasertib; first compound 8 µM)	relative viability ([1]; first compound 0.02 µM)	relative viability ([1]; first compound 0.06325 µM)	relative viability ([1]; first compound 0.2 µM)	relative viability ([1]; first compound 0.6325 µM)	relative viability ([1]; first compound 2 µM)
NCI-H1915	0.488	0.499	0.481	0.356	0.152	0.854	0.869	0.862	0.739	0.328	0.456	0.418	0.33	0.198	0.639	0.663	0.647	0.599	0.5
NCI-H1650	0.794	0.747	0.571	0.438	0.264	0.923	0.928	0.988	0.729	0.359	0.374	0.287	0.214	0.226	0.657	0.617	0.434	0.548	0.397
NCI-H647	0.513	0.577	0.345	0.209	0.0916	1.1	0.966	0.749	0.301	0.102	0.389	0.198	0.175	0.175	0.572	0.722	0.748	0.442	0.306
NCI-H2126	0.74	0.883	0.733	0.314	0.317	1.01	1.06	0.954	0.89	0.58	0.926	0.607	0.553	0.239	0.664	0.767	0.652	0.675	0.708
NCI-H727	1.24	1.27	1.16	1.06	0.673	0.765	0.731	0.693	0.628	0.342	0.669	0.598	0.536	0.472	0.542	0.517	0.624	0.588	0.541
EMC-BAC-2	0.969	0.433	0.6	0.331	0.218	0.812	0.702	0.708	0.522	0.368	0.285	0.257	0.212	0.224	0.346	0.406	0.333	0.346	0.32
NCI-H1437	0.612	0.466	0.383	0.261	0.254	0.801	0.641	0.469	0.174	0.109	0.435	0.439	0.344	0.314	0.816	0.844	0.791	0.6	0.535
NCI-H2347	0.368	0.643	0.528	0.303	0.264	0.686	0.581	0.653	0.5	0.408	0.491	0.579	0.418	0.279	0.384	0.504	0.367	0.355	0.311
NCI-H1666	1.05	0.979	0.934	0.835	0.601	0.973	1.16	0.843	0.404	0.321	0.667	0.44	0.406	0.436	0.949	0.816	0.79	0.777	0.546
NCI-H1993	0.841	0.661	0.73	0.453	0.351	0.832	0.848	0.774	0.76	0.597	0.568	0.607	0.57	0.571	0.554	0.57	0.567	0.548	0.549
COR-L23	0.368	0.503	0.423	0.208	0.238	0.508	0.524	0.513	0.205	0.0924	0.204	0.156	0.115	0.11	0.937	0.733	0.739	0.704	0.432
HCC-44	1.08	0.976	0.938	0.879	0.653	0.773	0.614	0.453	0.339	0.22	0.904	0.491	0.336	0.246	0.458	0.567	0.39	0.391	0.419
LU99A	0.521	0.499	0.503	0.388	0.326	0.537	0.592	0.565	0.38	0.267	0.252	0.239	0.229	0.25	0.308	0.288	0.241	0.274	0.267
NCI-H460	0.751	0.567	0.245	0.052	0.0296	0.907	0.945	0.522	0.0251	0.0158	0.475	0.278	0.0744	0.0448	0.578	0.639	0.505	0.237	0.185
NCI-H650	0.45	0.469	0.35	0.367	0.181	0.673	0.564	0.586	0.473	0.222	0.823	0.688	0.373	0.185	0.545	0.511	0.488	0.474	0.478
NCI-H1975	0.692	0.651	0.509	0.347	0.211	0.762	0.778	0.564	0.278	0.201	0.809	0.335	0.169	0.175	0.728	0.708	0.5	0.388	0.353
NCI-H1355	0.604	0.638	0.62	0.504	0.381	1.06	1.01	0.9	0.743	0.599	0.591	0.408	0.305	0.217	0.397	0.401	0.336	0.359	0.363

Cell Line	relative viability (Entinostat + Vorinostat; first compound 0.02 µM)	relative viability (Entinostat + Vorinostat; first compound 0.06325 µM)	relative viability (Entinostat + Vorinostat; first compound 0.2 µM)	relative viability (Entinostat + Vorinostat; first compound 0.6325 µM)	relative viability (Entinostat + Vorinostat; first compound 2 µM)	relative viability (Entinostat + Crizotinib; first compound 0.02 µM)	relative viability (Entinostat + Crizotinib; first compound 0.06325 µM)	relative viability (Entinostat + Crizotinib; first compound 0.2 µM)	relative viability (Entinostat + Crizotinib; first compound 0.6325 µM)	relative viability (Entinostat + Crizotinib; first compound 2 µM)	relative viability (SGI-1776 + Tozasertib; first compound 0.08 µM)	relative viability (SGI-1776 + Tozasertib; first compound 0.8 µM)	relative viability (SGI-1776 + Tozasertib; first compound 2.53 µM)	relative viability (SGI-1776 + Tozasertib; first compound 8 µM)	relative viability ([1]; first compound 0.02 µM)	relative viability ([1]; first compound 0.06325 µM)	relative viability ([1]; first compound 0.2 µM)	relative viability ([1]; first compound 0.6325 µM)	relative viability ([1]; first compound 2 µM)
NCI-H1755	0.762	0.728	0.769	0.48	0.374	0.832	0.827	0.771	0.462	0.347	0.626	0.521	0.452	0.373	0.797	0.738	0.797	0.622	0.558
NCI-H2009	0.664	0.72	0.762	0.581	0.416	0.984	1.06	0.965	0.877	0.556	0.646	0.543	0.449	0.387	0.577	0.628	0.533	0.441	0.386
LK-2	0.237	0.293	0.279	0.188	0.154	0.252	0.234	0.227	0.255	0.248	0.181	0.206	0.16	0.182	0.196	0.178	0.165	0.216	0.196
HCC-78	0.44	0.435	0.441	0.33	0.281	0.37	0.293	0.234	0.163	0.141	0.466	0.318	0.41	0.308	0.409	0.389	0.369	0.407	0.329
NCI-H3122	1.09	0.904	0.979	0.634	0.255	0.28	0.265	0.319	0.313	0.334	0.443	0.343	0.334	0.2	0.998	1.01	0.835	0.977	0.347
HOP-62	0.565	0.534	0.494	0.228	0.132	0.951	1.03	0.812	0.618	0.288	0.397	0.323	0.241	0.251	0.947	0.938	0.713	0.748	0.481
NCI-H661	0.718	0.774	0.707	0.58	0.468	0.907	0.909	1.01	0.834	0.633	0.347	0.378	0.336	0.379	0.709	0.7	0.659	0.619	0.539
NCI-H358	0.67	0.618	0.947	0.211	0.117	0.545	0.519	0.463	0.209	0.0928	0.0986	0.0957	0.102	0.0836		0.832	0.702	0.601	0.443
BEN	0.632	0.571	0.553	0.459	0.384	0.985	0.884	0.997	0.631	0.31	0.523	0.599	0.62	0.453	0.283	0.297	0.295	0.274	0.389
ChaGo-K-1	0.765	0.763	0.768	0.626	0.464	1.18	1.19	0.967	0.966	0.631	0.242	0.22	0.223	0.177	0.529	0.566	0.523	0.586	0.466
SK-MES-1	1.02	1.03	1.26	0.954	0.743	0.984	1.03	1.09	0.955	0.67	0.964	0.35	0.154	0.133	0.572	0.664	0.589	0.426	0.337
NCI-H2085	0.731	0.763	0.788	0.608	0.419	0.991	0.933	0.769	0.57	0.414	0.858	0.617	0.463	0.389	0.792	0.829	0.62	0.46	0.44
LCLC-103H	0.804	0.806	0.703	0.482	0.447	0.968	1.03	0.992	0.801	0.631	0.495	0.506	0.424	0.211	0.409	0.419	0.446	0.452	0.335
201T	0.995	1.07	0.95	0.691	0.491	1.03	1.03	0.919	0.743	0.754	0.982	0.901	0.549	0.366	0.858	0.743	0.72	0.515	0.851
NCI-H2023	0.541	0.536	0.318	0.118	0.0713	0.526	0.596	0.324	0.17	0.109	0.325	0.224	0.165	0.148	0.369	0.419	0.277	0.182	0.167
NCI-H23	0.601	0.681	0.496	0.271	0.198	0.5	0.545	0.407	0.39	0.166	0.367	0.295	0.282	0.205	0.605		0.435	0.351	0.398
LXF-289	0.784	0.784	0.731	0.526	0.381	0.789	0.806	0.788	0.669	0.331	0.171	0.212	0.184	0.0856	0.814	0.884	0.768	0.748	0.351
